Tests used:
[1] = biological target: T1, K^b sol (Mus musculus, UniProt P01901); experiment: biochemical; conditions: read-out: dissociation rate constant
T1 sequence (P01901 22-305 limits assumed): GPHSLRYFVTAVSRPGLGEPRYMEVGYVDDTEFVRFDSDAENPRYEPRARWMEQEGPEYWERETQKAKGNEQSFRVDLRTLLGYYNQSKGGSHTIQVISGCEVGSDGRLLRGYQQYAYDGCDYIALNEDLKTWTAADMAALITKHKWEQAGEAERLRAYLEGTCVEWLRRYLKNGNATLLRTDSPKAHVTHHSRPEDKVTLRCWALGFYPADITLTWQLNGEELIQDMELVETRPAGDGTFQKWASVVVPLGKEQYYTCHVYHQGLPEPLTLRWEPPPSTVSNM
T1 sequence (P01887 21-119 partner): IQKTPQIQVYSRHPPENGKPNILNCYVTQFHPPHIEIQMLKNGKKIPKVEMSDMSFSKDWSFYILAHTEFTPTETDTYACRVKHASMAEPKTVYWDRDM

[2] = system: B3/CD8 T-cell hybridoma; experiment: Antigen presentation assay: K^b/β2 Drosophila cells cocultured with T-cell hybridoma B3/CD8, IL-2 by CTLL 3H thymidine incorporation; assay type: cell-based, murine; conditions: Drosophila cells transfected with K^b/β2; peptide added to medium or protein osmotically loaded
Experimental: Osmotic loading of SC2 and 3T3 cells with ovalbumin protein was carried out as described by Moore, et al., Cell 54: 777-785 (1988). The assay procedure is as follows. In a 96-well dish, 1×10^5 Drosophila cells (with or without peptide/protein loaded) or 3T3 cells were cocultured with 1×10^5 B3/CD8 T-cell hybridoma cells in 200 μl of RPMI media supplemented with 10 fetal bovine serum. After 24 hours of incubation, 100 μl of the supernatant from these cultures was added to 100 μl of RPMI containing 5,000 CTLL cells. The cells were cocultured for 24 hours at 37° C. when 1 μCi of ^3 H thymidine (Amersham) was added. After a further incubation of 15 hours at 37° C., the incorporation of radiolabel into the CTLL cells was determined by scintillation counting.
Assays conducted with murine MHC also verified that the insect cells are capable of loading peptide onto the Class I molecules. Cells expressing as few as 200-500 MHC molecules containing a particular antigen can be detected by a T-cell. […] Upon antigenic stimulation, B3/CD8 produces IL-2, measured by ^3 H thymidine incorporation in IL-2-dependenT-cell line CTLL (Gillis, et al., J. Immunol. 120: 2027 91978)). Thus, by measuring the amount of IL-2 produced, one can assay for T-cell recognition. […]

Molecule: CC(C)C[C@H](NC(=O)CNC(=O)[C@H](CCC(N)=O)NC(=O)[C@H](Cc1ccc(O)cc1)NC(=O)[C@@H](NC(=O)[C@H](Cc1ccc(O)cc1)NC(=O)CNC(=O)[C@@H](N)CCCNC(=N)N)C(C)C)C(=O)O [[^125 I]VSV-8]
- koff [1]: 0.00032 s⁻¹

B1: ovalbumin (protein, UniProt P01012 2-386, looked up)
Ovalbumin: GSIGAASMEFCFDVFKELKVHHANENIFYCPIAIMSALAMVYLGAKDSTRTQINKVVRFDKLPGFGDSIEAQCGTSVNVHSSLRDILNQITKPNDVYSFSLASRLYAEERYPILPEYLQCVKELYRGGLEPINFQTAADQARELINSWVESQTNGIIRNVLQPSSVDSQTAMVLVNAIVFKGLWEKAFKDEDTQAMPFRVTEQESKPVQMMYQIGLFRVASMASEKMKILELPFASGTMSMLVLLPDEVSGLEQLESIINFEKLTEWTSSNVMEERKIKVYLPRMKMEEKYNLTSVLMAMGITDVFSSSANLSGISSAESLKISQAVHAAHAEINEAGREVVGSAEAGVDAASVSEEFRADHPFLFCIKHIATNAVLFFGRCVSP
notes: ovalbumin (Sigma Chem. Co.) osmotically loaded into the cells
- T-cell recognition (IL-2 production by B3/CD8) [2]: no recognition occurred
